# Laboratory results taken from US9822069B2, “Urea derivative or pharmacologically acceptable salt thereof” (KYORIN PHARMACEUTICAL CO. LTD., priority 2013, dated 2017).
# Molecular target: T1, human FPRL1 (Homo sapiens, UniProt P25090)
# T1 construct: expressed in transfected cells; host or cells: HEK293 (JCRB9068, NIBIO), transient transfection with pCMV-script vectors using Lipofectamine 2000
# T1 sequence (P25090 1-351): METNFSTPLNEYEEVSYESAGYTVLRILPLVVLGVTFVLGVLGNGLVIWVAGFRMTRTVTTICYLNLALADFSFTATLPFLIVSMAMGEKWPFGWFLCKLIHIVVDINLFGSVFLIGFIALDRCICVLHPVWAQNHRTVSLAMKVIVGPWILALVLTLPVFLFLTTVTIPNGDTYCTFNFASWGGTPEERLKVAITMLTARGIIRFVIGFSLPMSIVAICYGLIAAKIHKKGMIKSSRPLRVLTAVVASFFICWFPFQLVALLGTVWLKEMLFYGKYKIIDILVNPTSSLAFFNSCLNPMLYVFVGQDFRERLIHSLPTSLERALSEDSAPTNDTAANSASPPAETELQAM
# Test: Measurement test of agonist activity on human FPRL1 (test of calcium mobilization in cell, HEK293 with human FPRL1 and Gα15 expression vectors)
# Assay type: cell-based
# Conditions: calcium mobilization in HEK293 cells with human FPRL1 and Gα15 expression vectors
# How it was run: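 HEK293 transiently co-transfected with human FPRL1 and Gα15, plated 24 h before assay, loaded with Fluo-4 NW dye plus probenecid. Compounds in eight 10-fold dilutions (DMSO stocks 10^−2 to 10^−9 M, then diluted 100-fold in assay buffer); calcium mobilization read on Flexstation for EC50.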
row,Compound,EC50
1,"COc1ccc(C2CNC(=O)C2NC(=O)Nc2ccc(F)cc2)cc1 (stereo not drawn) [Example 12-13, (+)-1-(4-fluorophenyl)-3-[4-(4-methoxyphenyl)-2-oxopyrrolidin-3-yl]urea]",1.12 nM
2,"COc1cc(F)c([C@@H]2CNC(=O)[C@H]2NC(=O)Nc2ncc(Cl)s2)c(F)c1 (relative stereo) [Example 1-26, (−)-1-(5-chlorothiazol-2-yl)-3-[(3S*,4R*)-4-(2,6-difluoro-4-methoxyphenyl)-2-oxopyrrolidin-3-yl]urea]",1.91 nM
3,"COc1ccc([C@@H]2CN(C)C(=O)[C@H]2NC(=O)Nc2ccc(Cl)cc2)cc1 (single isomer, unassigned) [EXAMPLE 1-6, (−)-1-(4-chlorophenyl)-3-[(3S*,4R*)-4-(4-methoxyphenyl)-1-methyl-2-oxopyrrolidin-3-yl]urea]",0.2 nM
4,"COc1cc(F)c([C@@H]2CN(C)C(=O)[C@H]2NC(=O)Nc2ccc(F)cc2)c(F)c1 (relative stereo) [Example 24-1, (−)-1-[(3S*,4R*)-4-(2,6-Difluoro-4-methoxyphenyl)-1-methyl-2-oxopyrrolidin-3-yl]-3-(4-fluorophenyl)urea]",0.09 nM
5,"COc1cc(F)c([C@@H]2CN(OC)C(=O)[C@H]2NC(=O)Nc2ccc(F)cc2)c(F)c1 (single isomer, unassigned) [EXAMPLE 27-2, (−)-1-[(3S*,4R*)-4-(2,6-Difluoro-4-methoxyphenyl)-1-methoxy-2-oxopyrrolidin-3-yl]-3-(4-fluorophenyl)urea]",0.1 nM
6,"NC(=O)CN1C[C@@H](c2cc3c(cc2F)OCC3)[C@H](NC(=O)Nc2ccc(F)cc2)C1=O (relative stereo) [Example 17-3, (−)-2-{(3S*,4R*)-4-(6-fluoro-2,3-dihydrobenzofuran-5-yl)-3-[3-(4-fluorophenyl)ureido]-2-oxopyrrolidin-1-yl}acetamide]",0.29 nM
7,"COc1ccc([C@@H]2CN/C(=N\O)[C@H]2NC(=O)Nc2ccc(F)cc2)cc1 (single isomer, unassigned) [EXAMPLE 33-1, (−)-1-(4-Fluorophenyl)-3-[(3S*,4R*,Z)-2-(2-hydroxyimino)-4-(4-methoxyphenyl)pyrrolidin-3-yl]urea]",1.14 nM
8,"COc1ccc([C@@H]2CN(C(C)C(=O)O)C(=O)[C@H]2NC(=O)Nc2ccc(F)cc2)cc1 (single isomer, unassigned; isomer b) [Example 20-1, (−)-2-{(3S*,4R*)-3-[3-(4-Fluorophenyl)ureido]-4-(4-methoxyphenyl)-2-oxopyrrolidin-1-yl}propionic acid (isomer B)]",0.47 nM
9,"COc1cc(F)c([C@@H]2CNC(=O)[C@H]2NC(=O)Nc2ccc(F)cc2)cc1F (single isomer, unassigned) [EXAMPLE 1-13, (−)-1-[(3S*,4R*)-4-(2,5-difluoro-4-methoxyphenyl)-2-oxopyrrolidin-3-yl]-3-(4-fluorophenyl)urea]",0.15 nM
10,"CCc1ccc(NC(=O)N[C@@H]2C(=O)NC[C@H]2c2c(F)cc(OC)cc2F)cc1 (relative stereo) [Example 7-10, (−)-1-[(3S*,4R*)-4-(2,6-difluoro-4-methoxyphenyl)-2-oxopyrrolidin-3-yl]-3-(4-ethylphenyl)urea]",2.31 nM
11,"COc1cc(F)c([C@@H]2CN=C(Nc3ccccc3)[C@H]2NC(=O)Nc2ccc(F)cc2)c(F)c1 (relative stereo) [EXAMPLE 32-18, 1-[(3R*,4S*)-3-(2,6-difluoro-4-methoxyphenyl)-5-(phenylamino)-3,4-dihydro-2H-pyrrol-4-yl]-3-(4-fluorophenyl)urea]",0.54 nM
12,"COc1ccc([C@@H]2CNC(=O)[C@H]2NC(=O)Nc2ccc(C#N)cc2)cc1 (single isomer, unassigned) [EXAMPLE 1-5, (−)-1-(4-cyanophenyl)-3-[(3S*,4R*)-4-(4-methoxyphenyl)-2-oxopyrrolidin-3-yl]urea]",2.88 nM
13,"O=C(Nc1ccc(F)cc1)N[C@@H]1C(=O)NC[C@H]1c1c(F)cc2c(c1F)CCO2 (relative stereo) [Example 1-80, 1-[(3S*,4R*)-4-(4,6-difluoro-2,3-dihydrobenzofuran-5-yl)-2-oxopyrrolidin-3-yl]-3-(4-fluorophenyl)urea]",0.69 nM
